Measured values: PMC6009863, “Symmetric molecules with 1,4-triazole moieties as potent inhibitors of tumour-associated lactate dehydrogenase-A” (Journal of Enzyme Inhibition and Medicinal Chemistry, 2017)

Biological target: T1, recombinant human LDHA protein (Homo sapiens, UniProt P00338)
T1 construct: purchased Abcam ab93699
Assay: LDHA inhibition assay (Lactate Dehydrogenase Assay Kit, colorimetric)
Format: biochemical
Settings: mean from three different assays, colorimetric assay measuring absorbance at 450 nm, errors ±5–10%
Protocol: All 15 symmetrical compounds were evaluated for their ability to inhibit LDHA, for the comparison galloflavin as a known isoform nonselective LDHA inhibitor[20] was used. Our choice of galloflavin was based on the fact that it is extensively studied as potent anticancer agents in recent years; additionally, galloflavin is already commercially available.
Lactate Dehydrogenase Assay Kit (Abcam, ab102526) and recombinant human LDHA protein (Abcam, ab93699) were used to assess the inhibitory effect of the tested compounds. First we generated a NADH standard curve for colorimetric detection by measuring the OD (450 nm) at different molar amounts of NADH. The linear regression equation of the curve was derivatized in Graphpad Prism. Tested compounds were dissolved in DMSO and their inhibitory activity was assessed at 140 and 300 μM strength. Galloflavin (Sigma, SML0776) at the same molar concentration was used as a known LDH inhibitor. The master reaction mix composed of LDH assay buffer and 10 ng human LDHA […] per reaction was prepared. Tested compounds were added and the final reaction volume was adjusted to 50 µL. Absorbance at 450 nm was taken after 2-3 minutes (T-initial) and continued every minute for 118 mins (T-final). The change in measurement over time (delta A450) was calculated as T-final minus T-initial. The amount of NADH generated by the assay between T-initial and T-final was deduced by comparing the A450 of each sample to the standard NADH standard curve. […]

IC50 [µM]	SMILES
165	COc1cc(-c2cn(CC(=O)Nc3ccc(S(N)(=O)=O)cc3)nn2)cc(-c2cn(CC(=O)Nc3ccc(S(N)(=O)=O)cc3)nn2)c1 [Compound 20a]
127	COc1cc(-c2cn(CC(=O)Nc3ccc(C(=O)O)cc3)nn2)cc(-c2cn(CC(=O)Nc3ccc(C(=O)O)cc3)nn2)c1 [Compound 20b]
163	COc1cc(-c2cn(CC(=O)Nc3ccc([N+](=O)[O-])cc3)nn2)cc(-c2cn(CC(=O)Nc3ccc([N+](=O)[O-])cc3)nn2)c1 [Compound 20c]
173	COc1cc(-c2cn(CC(=O)NCc3ccc(S(N)(=O)=O)cc3)nn2)cc(-c2cn(CC(=O)NCc3ccc(S(N)(=O)=O)cc3)nn2)c1 [Compound 21a]
128	COc1cc(-c2cn(CC(=O)NCc3ccc(C(=O)O)cc3)nn2)cc(-c2cn(CC(=O)NCc3ccc(C(=O)O)cc3)nn2)c1 [Compound 21b]

More lines, now with the values behind:

SMILES	IC50 [µM]
NS(=O)(=O)c1ccc(NC(=O)Cn2cc(-c3cccc(-c4cn(CC(=O)Nc5ccc(S(N)(=O)=O)cc5)nn4)c3)nn2)cc1 [Compound 7a]	128
O=C(Cn1cc(-c2cccc(-c3cn(CC(=O)Nc4ccc(C(=O)O)cc4)nn3)c2)nn1)Nc1ccc(C(=O)O)cc1 [Compound 7b]	120
O=C(Cn1cc(-c2cccc(-c3cn(CC(=O)Nc4ccc([N+](=O)[O-])cc4)nn3)c2)nn1)Nc1ccc([N+](=O)[O-])cc1 [Compound 7c]	172
NS(=O)(=O)c1ccc(CNC(=O)Cn2cc(-c3cccc(-c4cn(CC(=O)NCc5ccc(S(N)(=O)=O)cc5)nn4)c3)nn2)cc1 [Compound 11a]	158
O=C(Cn1cc(-c2cccc(-c3cn(CC(=O)NCc4ccc(C(=O)O)cc4)nn3)c2)nn1)NCc1ccc(C(=O)O)cc1 [Compound 11b]	156
NS(=O)(=O)c1ccc(NC(=O)Cn2cc(-c3cncc(-c4cn(CC(=O)Nc5ccc(S(N)(=O)=O)cc5)nn4)c3)nn2)cc1 [Compound 15a]	136
O=C(Cn1cc(-c2cncc(-c3cn(CC(=O)Nc4ccc(C(=O)O)cc4)nn3)c2)nn1)Nc1ccc(C(=O)O)cc1 [Compound 15b]	125
O=C(Cn1cc(-c2cncc(-c3cn(CC(=O)Nc4ccc([N+](=O)[O-])cc4)nn3)c2)nn1)Nc1ccc([N+](=O)[O-])cc1 [Compound 15c]	156
NS(=O)(=O)c1ccc(CNC(=O)Cn2cc(-c3cncc(-c4cn(CC(=O)NCc5ccc(S(N)(=O)=O)cc5)nn4)c3)nn2)cc1 [Compound 16a]	174
O=C(Cn1cc(-c2cncc(-c3cn(CC(=O)NCc4ccc(C(=O)O)cc4)nn3)c2)nn1)NCc1ccc(C(=O)O)cc1 [Compound 16b]	117
O=c1oc2c(cc1O)oc(=O)c1cc(O)c(O)c(O)c12 [Galloflavin, reference compound]	157

Test system: not given
Assay: not given
Settings: not given

melting point [°C]	SMILES
291 to 292	O=C(Cn1cc(-c2cccc(-c3cn(CC(=O)Nc4ccc(C(=O)O)cc4)nn3)c2)nn1)Nc1ccc(C(=O)O)cc1 [Compound 7b]

Test system: LDHA
Assay: not given
Design: method as in PMID 22417091
Settings: NMR and SPR fragment based hit identification series; read-out: IC50 (LDHA inhibition); cited from earlier work

SMILES	IC50 [µM]
CCCSc1nc2ccc(NC(=O)CCNC(=O)CCCc3ccc(CC(C(=O)O)C(=O)O)cc3)cc2s1 [A]	0.27

Test system: LDHA
Assay: not given
Design: method as in PMID 23302067
Settings: fragment-based hit identification series; read-out: IC50 (LDHA inhibition); cited from earlier work

SMILES	IC50 [µM]
COc1cc(OC[C@@H](O)[C@@H](O)[C@H](O)[C@H](O)CNc2cc(F)cc(-c3ccc(C(=O)O)cn3)c2)c(Cl)cc1NC(=O)CSc1ccc(C(=O)O)cn1 [B]	0.12

Test system: LDHA
Assay: not given
Design: method as in PMID 30108883
Settings: docking-based virtual screening hit; read-out: IC50 (LDHA inhibition potency in vitro); cited from earlier work

SMILES	IC50 [µM]
CCc1cc(=O)c(O)c([C@@H](CC(N)=O)c2cc3ccccc3n(CC(C)C)c2=O)o1 [C]	0.33
